The target in test [1] is SARS-CoV 3CL protease (Severe acute respiratory syndrome coronavirus, UniProt P0C6X7). The test can be described thus: biochemical. The conditions noted are these: for IC50: FRET, three parallel tests; for inhibitory activity on SARS-CoV 3CL proteases (in words): statement in words.
The target in test [2] is SARS-CoV-2 3CL protease (Severe acute respiratory syndrome coronavirus 2, UniProt P0DTD1). The test can be described thus: In-vitro enzyme activity inhibition test on SARS-CoV-2 3CL protease (fluorescence resonance energy transfer method). The note with it: for inhibitory activity on SARS-CoV-2 3CL proteases (in words): statement in words. In kind it is biochemical.
The mark [3] stands for this setting: 1 μM compound, parallel tests 1, 2, 3, 1 µM.
[4] abbreviates: 5 μM compound, parallel tests 1, 2, 3, 5 µM.
Where [5] appears, read: 10 μM compound, parallel tests 1, 2, 3, 10 µM.
The mark [6] stands for this setting: 20 μM compound, parallel tests 1, 2, 3, 20 µM.
[7] abbreviates: 30 μM compound, parallel tests 1, 2, 3, 30 µM.
Setting [8] is: 50 μM compound, parallel tests 1, 2, 3, 50 µM.
The mark [9] stands for this setting: 100 μM compound, parallel tests 1, 2, 3, 100 µM.
[10] abbreviates: read-out: inhibition percentage, 1 μM compound, parallel tests 1, 2, 3.
Setting [11] is: read-out: inhibition percentage, 5 μM compound, parallel tests 1, 2, 3.
[12] abbreviates: read-out: inhibition percentage, 10 μM compound, parallel tests 1, 2, 3.
Setting [13] is: read-out: inhibition percentage, 20 μM compound, parallel tests 1, 2, 3.
The mark [14] stands for this setting: read-out: inhibition percentage, 30 μM compound, parallel tests 1, 2, 3.
Setting [15] is: read-out: inhibition percentage, 50 μM compound, parallel tests 1, 2, 3.
[16] abbreviates: read-out: inhibition percentage, 100 μM compound, parallel tests 1, 2, 3.
[17] abbreviates: IC50, SARS-CoV-2 3CL protease, FRET, three parallel tests.
The mark [18] stands for this setting: 0.1 μM compound, parallel tests 1, 2, 3, 0.1 µM.
[19] abbreviates: 0.5 μM compound, parallel tests 1, 2, 3, 0.5 µM.

Where “and” joins values, the source holds several entries; their conditions need not be identical. Equal values may be shown once. Entries after “also recorded” stand apart in the source; their conditions may differ. Read-outs that look alike come from different tables or passages of the source.

For `Cc1cc2c(C(C)C)c(O)c(O)c(C=O)c2c(O)c1-c1c(C)cc2c(C(C)C)c(O)c(O)c(C=O)c2c1O` [Gossypol, gossypol], the inhibition percentage in test [1] (setting [3]) is 18.54 and 31.50; in test [1] (setting [4]), 35.68 and 44.78; in test [1] (setting [5]) it was 51.33 and 64.31; in test [1] (setting [6]), 64.56 and 77.58; in test [1] (setting [7]), 75.44 and 86.42; in test [1] (setting [8]), 84.12 and 93.41. Moreover, the inhibition percentage in test [1] (setting [9]) was 90.09 and 98.44; in test [2] (setting [3]) it was 16.13 and 28.41; in test [2] (setting [4]), 33.24 and 41.67; in test [2] (setting [5]), 49.17 and 61.32; in test [2] (setting [6]), 61.34 and 74.52; in test [2] (setting [7]), 72.15 and 83.12. Further, the inhibition percentage in test [2] (setting [8]) is 81.17 and 90.16; in test [2] (setting [9]), 87.84 and 95.27. Besides, the IC50 worked out at 5.43 ± 0.734 µM in test [1] (IC50, SARS-CoV 3CL protease) and 6.91 ± 0.839 µM in test [2] (setting [17]). Besides, the inhibition at 1 µM in test [1] (setting [10]) is 25.6%; in test [2] (setting [10]), 22.9%. Moreover, the inhibition at 5 µM in test [1] (setting [11]) stood at 40.4%; in test [2] (setting [11]), 36.2%. In addition, the inhibition at 10 µM in test [1] (setting [12]) was 61.2%; in test [2] (setting [12]), 57.4%. For the same compound, the inhibition at 20 µM in test [1] (setting [13]) was 75%; in test [2] (setting [13]), 71.2%. Besides, the inhibition at 30 µM stood at 85.1% in test [1] (setting [14]) and 83.7% in test [2] (setting [14]). The inhibition at 50 µM came to 92.1% in test [1] (setting [15]) and 88.4% in test [2] (setting [15]). Moreover, the results for the inhibition at 100 µM in test [1] (setting [16]) and in test [2] (setting [16]) were 96.3% and 93.2%, respectively. In addition, in test [1], the “inhibitory activity on SARS-CoV 3CL proteases (in words)” value is “all have inhibitory activity; also recorded: excellent inhibitory activity”. For the same compound, the “inhibitory activity on SARS-CoV-2 3CL proteases (in words)” value in test [2] is on record as “all have inhibitory activity; also recorded: excellent inhibitory activity”.
In the case of `Cc1cc2c(C(C)C)c(O)c(O)c(C=O)c2c(O)c1-c1c(C)cc2c(C(C)C)c(O)c(O)c(C=O)c2c1O` (single isomer, unassigned) [(−)- gossypol, (−)-gossypol], the inhibition percentage in test [1] (setting [18]) is 13.11 and 10.83 and 15.87; in test [1] (setting [19]), 24.54 and 21.88 and 30.26; in test [1] (setting [3]), 43.78 and 40.92 and 50.01; in test [1] (setting [4]), 64.32 and 58.9 and 67.22; in test [1] (setting [5]) it was 77.32 and 72.54 and 73.76; in test [1] (setting [6]), 86.43 and 78.13 and 85.43. The inhibition percentage in test [1] (setting [7]) is 91.83 and 87.54 and 90.32; in test [1] (setting [8]), 98.42 and 92.10 and 97.54; in test [1] (setting [9]) it was 99.74 and 98.12 and 99.53; in test [2] (setting [18]) it was 12.83 and 10.83 and 14.77; in test [2] (setting [19]), 20.99 and 19.88 and 22.88; in test [2] (setting [3]) it was 31.43 and 32.87 and 34.65. For the same compound, the inhibition percentage was 52.19 and 48.98 and 56.91 in test [2] (setting [4]); 71.90 and 65.43 and 69.78 in test [2] (setting [5]); 82.54 and 75.44 and 83.47 in test [2] (setting [6]); 90.45 and 83.21 and 91.45 in test [2] (setting [7]); 96.88 and 90.68 and 95.87 in test [2] (setting [8]); 99.23 and 96.73 and 98.44 in test [2] (setting [9]). Besides, the IC50 was 1.79 µM and < 10 µM in test [1] (IC50, SARS-CoV 3CL protease); 2.97 ± 0.473 µM in test [2] (IC50); less than 10 µM in test [2] (setting [17]). Further, the “inhibitory activity on SARS-CoV 3CL proteases (in words)” value in test [1] was “all have inhibitory activity; also recorded: excellent inhibitory activity”. The “inhibitory activity on SARS-CoV-2 3CL proteases (in words)” value in test [2] was “all have inhibitory activity; also recorded: excellent inhibitory activity”.
With `CC(=O)O.Cc1cc2c(C(C)C)c(O)c(O)c(C=O)c2c(O)c1-c1c(C)cc2c(C(C)C)c(O)c(O)c(C=O)c2c1O` [Acetate gossypol, acetate gossypol], the inhibition percentage in test [1] (setting [3]) is 26.61 and 19.97 and 32.84; in test [1] (setting [4]) it was 41.15 and 36.26 and 45.91; in test [1] (setting [5]), 62.48 and 52.56 and 65.81; in test [1] (setting [6]), 75.14 and 65.81 and 78.97; in test [1] (setting [7]), 86.61 and 76.15 and 87.62; in test [1] (setting [8]), 93.52 and 85.63 and 94.62. Moreover, the inhibition percentage in test [1] (setting [9]) was 97.81 and 91.32 and 98.71; in test [2] (setting [3]), 24.71 and 17.94 and 30.17; in test [2] (setting [4]), 37.81 and 34.61 and 43.51; in test [2] (setting [5]) it was 59.14 and 50.87 and 63.21; in test [2] (setting [6]), 72.87 and 63.41 and 76.32; in test [2] (setting [7]), 85.31 and 73.94 and 84.81. The inhibition percentage in test [2] (setting [8]) was 90.17 and 82.76 and 91.83; in test [2] (setting [9]), 95.41 and 89.67 and 97.16. Further, the IC50 in test [1] (SARS-CoV 3CL protease, read-out: IC50) was 5.16 ± 0.712 µM; in test [2] (SARS-CoV-2 3CL protease, FRET, three parallel tests, read-out: IC50) it was 6.09 ± 0.784 µM. In addition, in test [1], the “inhibitory activity on SARS-CoV 3CL proteases (in words)” value is listed as “all have inhibitory activity; also recorded: excellent inhibitory activity”. The “inhibitory activity on SARS-CoV-2 3CL proteases (in words)” value in test [2] was “all have inhibitory activity; also recorded: excellent inhibitory activity”.
Consider `Cc1cc2c(C(C)C)c(O)c(O)c(C=O)c2c(O)c1-c1c(C)cc2c(C(C)C)c(O)c(O)c(C=O)c2c1O` (single isomer, unassigned) [(+)- gossypol, (+)-gossypol], for which the inhibition percentage was 3.96 and 4.54 and 5.87 in test [1] (setting [3]); 11.58 and 9.88 and 13.43 in test [1] (setting [4]); 19.12 and 16.53 and 20.66 in test [1] (setting [5]); 22.9 and 26.42 and 30.76 in test [1] (setting [6]); 28.14 and 30.43 and 38.33 in test [1] (setting [7]); 45.56 and 48.42 and 51.33 in test [1] (setting [8]). Besides, the inhibition percentage was 72.33 and 62.28 and 74.43 in test [1] (setting [9]); 2.45 and 3.18 and 3.87 in test [2] (setting [3]); 5.69 and 7.88 and 9.54 in test [2] (setting [4]); 9.43 and 11.87 and 14.87 in test [2] (setting [5]); 18.73 and 20.90 and 22.44 in test [2] (setting [6]); 25.21 and 28.43 and 29.13 in test [2] (setting [7]). Besides, the inhibition percentage is 36.55 and 40.32 and 38.72 in test [2] (setting [8]); 58.34 and 61.83 and 55.88 in test [2] (setting [9]). The IC50 in test [1] (IC50, SARS-CoV 3CL protease) is 51.6 ± 1.71 µM; in test [2] (setting [17]) it was 75.2 ± 1.88 µM. The “inhibitory activity on SARS-CoV 3CL proteases (in words)” value in test [1] is given as “all have inhibitory activity”. Further, the “inhibitory activity on SARS-CoV-2 3CL proteases (in words)” value in test [2] was “all have inhibitory activity”.
